Assay results from US20120045528A1, “USE OF N20 GAS FOR TREATING CHRONIC PAIN” (priority 2009, published 2012).
“Also recorded” adds a separate entry of the source. Read-outs that look alike come from different tables or passages of the source.

Assays:
[1] = tested on: neuropathic rat (sciatic nerve constriction, CCI); test: Nociceptive threshold by vocalization test to a mechanical stimulus (Randall-Selitto) in rats with mononeuropathy from sciatic nerve constriction (CCI); type: in vivo, male Sprague-Dawley rats
Method: A mononeuropathy is induced in male Sprague-Dawley rats (8 per group) by sciatic nerve constriction. More specifically, on D0, the rats are anesthetized with halothane and the sciatic nerve (injured hind paw side) is prepared using chromic catgut, 4 filament. Neuropathic pain lasting more than 40 days is thus induced.
On D7, the rats are placed in a hermetic chamber where they will inhale, for 75 minutes, the test gas mixture or medical air in the control rats (Sham). Repeated exposures to the mixtures take place on D7, D8, and D9.
Other rats are subjected to comparative treatments with conventional painkilling products, namely ketamine (3×10 mg/kg, sc) and morphine (1 mg/kg, sc).
The nociceptive threshold is then measured via a vocalization test in response to a mechanical stimulus (Randall-Selitto).
The data obtained per measurement are expressed as mean (±standard deviation). The level of significance is set starting from P<0.05.

human beings = conditions: cited from earlier work
[2] = morphine 1 mg/kg sc, neuropathic rat
[3] = N2O concentration 5-25% (vol. %)
[4] = N2O concentration 26-45% (vol. %)
[5] = N2O concentration 45-65% (vol. %)

Question: With CNC1(c2ccccc2Cl)CCCCC1=O (stereo not shown) [ketamine] as the compound, how does the “duration of anti-hyperalgesic effect” value ([1]; ketamine 3x10 mg/kg sc, neuropathic rat) read?
Answer: Its value is no more than 2 days.

Question: What does the source list for CN1CC[C@]23c4c5ccc(O)c4O[C@H]2[C@@H](O)C=C[C@H]3[C@H]1C5 [morphine]?
Answer: duration of analgesic effect ([1]; morphine 1 mg/kg sc, D14, neuropathic rat): 30 min; delayed effect (following days) / anti-hyperalgesic long-term effect [1, 2]: without a delayed effect; also recorded: without any anti-hyperalgesic long-term effect; duration of effect following administration (in words) [1, 2]: limited to a few minutes

Question: With O=C1CC[C@@]2(O)[C@H]3Cc4ccc(O)c5c4[C@@]2(CCN3CC2CC2)[C@H]1O5 [naltrexone] as the compound, how does the “effect on the anti-sensitization effect of 50% nitrous oxide on the following days” value ([1]; naltrexone given to block the analgesic effect of 50% nitrous oxide on D7) read?
Answer: The value was “does not modify”.

Question: Which results are given for [N-]=[N+]=O [nitrous oxide]?
Answer: Amnesia (human beings; [3]): none; Analgesia (human beings; [3]): none; Contact (human beings; [3]): present; Psychic effects (human beings; [3]): slight; Amnesia (human beings; [4]): slight; Analgesia (human beings; [4]): weak; Contact (human beings; [4]): present; Psychic effects (human beings; [4]): drunkenness; Amnesia (human beings; [5]): complete; Analgesia (human beings; [5]): moderate; Contact (human beings; [5]): present; Psychic effects (human beings; [5]): drowsiness; Psychic effects, Amnesia, Analgesia, Contact (human beings; N2O concentration 66-85% (vol. %)): Patient unconscious; duration of sustained reduction of chronic pain of neuropathic type ([1]; rat, in vivo): > 1 month
